The nature of one data set: in vivo. The settings on record: mouse, iv.
The nature of the next data set: in vitro. The data set is classed as in vitro ADME. The settings on record: human, plasma. The source says: Data were plotted using GraphPad Prism.
The next data set relates to C1498ff cells. The experiment in a line: C1498ff leukemia model in B6 albino mice, ANT308 schedules. As to conditions: high-dose (100 μg). The data set is classed as in vivo, mouse. As for the experimental part: All experimental procedures involving animals were approved by the Institutional Animal Care and Use Committee (IACUC) at Emory University. On day 0, B6 mice were injected by tail vein injection (i.v.) with 1 × 10^6 C1498 cells. DBA/2 mice were injected subcutaneously (s.c.) with 1 x 10^5 P815-luciferase mastocytoma cells. Growth of luciferase + C1498ff in B6 albino recipients was assessed by bioluminescent imaging (BLI) after mice were anesthetized, injected intraperitoneally (i.p.) with luciferin substrate (15 μg/g mouse), and imaged using an IVIS imaging system, starting at day 6 before treatment and continuing once weekly. Albino B6 mice surviving to >60 days without evidence of AML (by luciferase assay) received a second injection of a two-fold higher dose of C1498 (2 × 10^6 cells). DBA/2 mice that received P815 cells and treatment with ANT308, and survived past 60 days, were rechallenged using 2 x 10^5 P815 cells. Lymphocyte kinetics and C1498 leukemia cell burden were analyzed weekly through pterygoid venous plexus blood collection in CD45.1+ B6.SJL recipients; CD45.2 C1498 tumor cells were differentiated from CD45.1 host cells by flow cytometry. Mice that reached endpoint conditions were euthanized and counted as dead on the next day. […]

The subject of a further data set is human T cells. The settings on record: 3 µM.
Data set [1] deals with T1, VPAC1 on Vipr2 KO murine T-cells (Mus musculus, UniProt P97751).
T1 construct: Vipr2 knockout (KO) T-cells stained for VPAC1 (green); endogenous in cells; host or cells: T cells from Vipr2 knockout mice
T1 sequence (P97751 31-459): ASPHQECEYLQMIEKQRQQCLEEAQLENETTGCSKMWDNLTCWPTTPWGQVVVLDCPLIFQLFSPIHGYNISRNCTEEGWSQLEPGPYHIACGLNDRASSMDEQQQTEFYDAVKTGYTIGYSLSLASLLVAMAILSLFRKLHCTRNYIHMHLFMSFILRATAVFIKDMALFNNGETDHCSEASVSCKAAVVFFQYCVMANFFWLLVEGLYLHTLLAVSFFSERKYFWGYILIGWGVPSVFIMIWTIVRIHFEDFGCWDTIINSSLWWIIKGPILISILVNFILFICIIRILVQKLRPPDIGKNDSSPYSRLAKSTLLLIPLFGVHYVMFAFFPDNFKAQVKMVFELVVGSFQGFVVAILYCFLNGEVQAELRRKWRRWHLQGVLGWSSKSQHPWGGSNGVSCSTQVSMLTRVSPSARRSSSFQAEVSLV
Briefly: Immunostaining colocalization with VPAC1 on Vipr2 KO murine T-cells. The data set is classed as cell-based. As to conditions: Pearson's correlation. As for the experimental part: Merge + NucleusSupplementary Figure 5. Immunostaining showing 6xHis-ANT308, 6xHis-VIP, and 6xHis-Scrambled-sequence peptides colocalization with VPAC1 on murine T-cells surface. Isolated T-cells from naïve wild-type (WT) C57BL/6 mice were activated with α-CD3/α-CD28 beads and incubated with 10µM (A-F) ANT308-6xHis, (G-L) VIP-6xHis and (M-R) VIP fully SCRAM-6xHis in the presence of IL-2 (30 IU/mL) for 1 hour. The cells were fixed with 4% Paraformaldehyde, stained with VPAC1 (green), 6xHis-tag (magenta) & Hoechst (blue) and visualized on Cell-Tak coated glass-bottom plates. (A-C, G-I and M-O) en face view, (D,J & P) representative field view, (E, K & Q) 3D view, (F, L & R) line scan profiles showing colocalization patterns of ANT308-6xHis, VIP-6xHis and VIP-fully scrambled-6xHis with VPAC1 on T-cell membrane. Relative fluorescence intensity (RFI), arbitrary unit. (S) Quantification of co-localization using Pearson’s correlation coefficient (R-value). Data are shown as mean ± SD with individual data points (n=10). Statistical significance was determined by one-way Anova with post-hoc multiple comparisons. **** p < 0.0001, *** p < 0.001. Scale 2.5µm.
Supplementary Figure 6. […] (K) Quantification of co-localization using Pearson’s correlation coefficient (R-value). […] Statistical significance was determined by one-way Anova with post-hoc multiple comparisons. **** p < 0.0001. […]

Data set [2] can be described thus: In vivo plasma half-life of 6xHis-tagged peptides after i.v. injection, western blot. The settings on record: mouse, iv. (In general: In western blotting, separated proteins are transferred to a membrane and probed.)
Procedure: Plasma was collected at multiple time points post-injection and analyzed by SDS-PAGE using 12% polyacrylamide gel. Densitometry was performed using ImageJ and % peptide remaining was plotted using GraphPad Prism. The images were acquired using BioRad ChemiDoc Touch Imaging System with Image Lab Touch Software.
Data set [3] concerns the target VIP receptor (VIP-R) on human T cells (human (endogenous in human T cells)) (UniProt P32241).

These results are taken from article PMC13080581, “Identification and characterization of vasoactive intestinal peptide receptor antagonists with high-affinity and potent anti-leukemia activity” (The Journal of Biological Chemistry, 2025).

Ends that are not written are not given here.

VIP receptor (VIP-R) on human T cells (human (endogenous in human T cells)), sequence (P32241 31-457): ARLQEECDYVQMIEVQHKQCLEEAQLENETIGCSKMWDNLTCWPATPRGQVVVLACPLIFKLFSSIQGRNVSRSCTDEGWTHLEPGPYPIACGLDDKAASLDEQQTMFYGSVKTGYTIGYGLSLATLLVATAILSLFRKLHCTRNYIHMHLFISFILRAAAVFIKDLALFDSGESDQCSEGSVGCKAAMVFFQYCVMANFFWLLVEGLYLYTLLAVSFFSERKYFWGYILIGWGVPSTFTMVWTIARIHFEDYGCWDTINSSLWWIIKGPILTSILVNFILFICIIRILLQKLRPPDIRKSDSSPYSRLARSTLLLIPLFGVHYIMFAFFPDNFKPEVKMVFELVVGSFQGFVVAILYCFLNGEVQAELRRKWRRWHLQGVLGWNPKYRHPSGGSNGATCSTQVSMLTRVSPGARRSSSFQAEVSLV

For “KPRRPYTSDYTRLRKQMAVKKYLNLILNHHHHHH-NH2 [ANT308-6xHis]”, the half-life in the data set “in vivo” and in “in vitro” was about 15 min each time.

Turning to “KPRRPYTSDYTRLRKQMAVKKYLNLILN-NH2 [ANT308]”, the “toxic effects in weight or behavior of treated mice” value with C1498ff cells is given as “did not produce any observable toxic effects”.

Take `CC[C@H](C)[C@H](NC(=O)[C@H](CO)NC(=O)[C@H](CC(N)=O)NC(=O)[C@H](CC(C)C)NC(=O)[C@H](Cc1ccc(O)cc1)NC(=O)[C@H](CCCCN)NC(=O)[C@H](CCCCN)NC(=O)[C@@H](NC(=O)[C@H](C)NC(=O)[C@H](CCSC)NC(=O)[C@H](CCC(N)=O)NC(=O)[C@H](CCCCN)NC(=O)[C@H](CCCNC(=N)N)NC(=O)[C@H](CC(C)C)NC(=O)[C@H](CCCNC(=N)N)NC(=O)[C@@H](NC(=O)[C@H](Cc1ccc(O)cc1)NC(=O)[C@H](CC(N)=O)NC(=O)[C@H](CC(=O)O)NC(=O)[C@@H](NC(=O)[C@H](Cc1ccccc1)NC(=O)[C@@H](NC(=O)[C@H](C)NC(=O)[C@H](CC(=O)O)NC(=O)[C@H](CO)NC(=O)[C@@H](N)Cc1c[nH]cn1)C(C)C)[C@@H](C)O)[C@@H](C)O)C(C)C)C(=O)N[C@@H](CC(C)C)C(=O)N[C@@H](CC(N)=O)C(=O)N[C@@H](Cc1c[nH]cn1)C(=O)N[C@@H](Cc1c[nH]cn1)C(=O)N[C@@H](Cc1c[nH]cn1)C(=O)N[C@@H](Cc1c[nH]cn1)C(=O)N[C@@H](Cc1c[nH]cn1)C(=O)N[C@@H](Cc1c[nH]cn1)C(N)=O` [VIP-6xHis, reference compound]: the half-life in “in vitro” was about 15 min.

The molecule “KPRRPYTVNYTSLRKQIAVKKYLMLILN-NH2 [ANT195]” had a T cell viability in the data set with human T cells of about 30%.

For “YDDHTKLKINTARLVSAQSNVFNMLKYRHHHHHH-NH2 (C-terminus assumed) [VIP fully SCRAM-6xHis]”, the “co-localization with VPAC1 in Vipr2 KO murine T-cells” value in data set [1] is given as “shows no overlap”. In data set [2], this molecule yielded a half-life of about 30 min.

B1: ANT308 (peptide)
peptide: KPRRPYTSDYTRLRKQMAVKKYLNLILN-NH2
In data set [3], B1 showed a CD69 expression on CD4+ or CD8+ pooled human T cells treated with increasing concentrations of ANT308 (T cell activation, flow cytometry) of 0.3 to 0.4 µM.

One may read the half-life as how long it takes for the measured level to halve. A higher half-life goes with slow decline.
